ChEMBL document CHEMBL4411296, “Design and development of Isatin-triazole hydrazones as potential inhibitors of microtubule affinity-regulating kinase 4 for the therapeutic management of cell proliferation and metastasis” (Eur J Med Chem, 2019)
pIC50: −log10 of the molar value. Calls of active or inactive are those of the source. The calls are words filed in the database; no cut-off is given here.

Key:
[1] = test system: MDA-MB-435S; test: Induction of ROS generation in human MDA-MB-435S cells at IC50 after 5 to 6 hrs by DCFDA staining-based spectroflourimetric analysis; type: functional, cell-based
[2] = test system: HepG2; test: Induction of apoptosis in human HepG2 cells assessed as viable cells at IC50 after 24 hrs by Annexin V-FITC/propidium iodide staining-based flow cytometric analysis (reference value: 97.6%); type: functional
[3] = test system: MCF7; test: Antimigratory activity against human MCF7 cells at IC50 after 48 hrs by wound-healing assay; type: functional, cell-based
[4] = molecular target: Serine/threonine-protein kinase pim-1 (Homo sapiens) (UniProt P11309); test: Inhibition of PIM1 (unknown origin) at 10 uM after 60 mins by ADP-Glo luminescence assay
[5] = test system: MDA-MB-435S; test: Induction of apoptosis in human MDA-MB-435S cells assessed as necrotic cells at IC50 after 24 hrs by Annexin V-FITC/propidium iodide staining-based flow cytometric analysis (reference value: 0.64%); type: functional
[6] = molecular target: Serine/threonine-protein kinase D1 (Homo sapiens) (UniProt Q15139); test: Inhibition of PKCmu (unknown origin) at 10 uM after 60 mins by ADP-Glo luminescence assay
[7] = test system: HepG2; test: Induction of ROS generation in human HepG2 cells at IC50 after 5 to 6 hrs by DCFDA staining-based spectroflourimetric analysis; type: functional, cell-based
[8] = test system: MCF7; test: Antiproliferative activity against human MCF7 cells assessed as cell viability after 48 hrs by MTT assay; settings: MCF7, 48 h
[9] = test system: HepG2; test: Induction of apoptosis in human HepG2 cells assessed as necrotic cells at IC50 after 24 hrs by Annexin V-FITC/propidium iodide staining-based flow cytometric analysis (reference value: […]); type: functional
[10] = molecular target: Calcium/calmodulin-dependent protein kinase type IV (Homo sapiens) (UniProt Q16566); test: Inhibition of CAMK4 (unknown origin) at 10 uM after 60 mins by ADP-Glo luminescence assay
[11] = molecular target: Albumin (Homo sapiens, UniProt P02768); test: Binding affinity to HSA by ITC; type: ADME; settings: isolated protein
[12] = molecular target: Death-associated protein kinase 1 (Homo sapiens) (UniProt P53355); test: Inhibition of DAPK1 (unknown origin) at 10 uM after 60 mins by ADP-Glo luminescence assay
[13] = test system: MCF7; test: Induction of apoptosis in human MCF7 cells assessed as early apoptotic cells at IC50 after 24 hrs by Annexin V-FITC/propidium iodide staining-based flow cytometric analysis (reference value: 1.23%); type: functional
[14] = molecular target: Calcium/calmodulin-dependent protein kinase type II subunit alpha (Homo sapiens) (UniProt Q9UQM7); test: Inhibition of CAMK2 alpha (unknown origin) at 10 uM after 60 mins by ADP-Glo luminescence assay
[15] = test system: MDA-MB-435S; test: Induction of apoptosis in human MDA-MB-435S cells assessed as late apoptotic cells at IC50 after 24 hrs by Annexin V-FITC/propidium iodide staining-based flow cytometric analysis (reference value: 0.18%); type: functional
[16] = test system: MCF7; test: Induction of apoptosis in human MCF7 cells assessed as late apoptotic cells at IC50 after 24 hrs by Annexin V-FITC/propidium iodide staining-based flow cytometric analysis (reference value: 0.077%); type: functional
[17] = test system: MDA-MB-435S; test: Induction of apoptosis in human MDA-MB-435S cells assessed as viable cells at IC50 after 24 hrs by Annexin V-FITC/propidium iodide staining-based flow cytometric analysis (reference value: 98.8%); type: functional
[18] = test system: HepG2; test: Induction of apoptosis in human HepG2 cells assessed as late apoptotic cells at IC50 after 24 hrs by Annexin V-FITC/propidium iodide staining-based flow cytometric analysis (reference value: 0.039%); type: functional
[19] = test system: MCF7; test: Induction of ROS generation in human MCF7 cells at IC50 after 5 to 6 hrs by DCFDA staining-based spectroflourimetric analysis; type: functional, cell-based
[20] = test system: HepG2; test: Antimigratory activity against human HepG2 cells at IC50 after 48 hrs by wound-healing assay; type: functional, cell-based
[21] = molecular target: PAS domain-containing serine/threonine-protein kinase (Homo sapiens) (UniProt Q96RG2); test: Inhibition of PASK (unknown origin) at 10 uM after 60 mins by ADP-Glo luminescence assay
[22] = test system: HepG2; test: Induction of apoptosis in human HepG2 cells assessed as early apoptotic cells at IC50 after 24 hrs by Annexin V-FITC/propidium iodide staining-based flow cytometric analysis (reference value: […]); type: functional
[23] = molecular target: Calcium/calmodulin-dependent protein kinase type II subunit beta (Homo sapiens) (UniProt Q13554); test: Inhibition of CAMK2 beta (unknown origin) at 10 uM after 60 mins by ADP-Glo luminescence assay
[24] = molecular target: Calcium/calmodulin-dependent protein kinase type II subunit beta (Homo sapiens) (UniProt Q13554); test: Inhibition of CAMKII (unknown origin) at 10 uM after 60 mins by ADP-Glo luminescence assay
[25] = molecular target: 5'-AMP-activated protein kinase subunit beta-1 (Homo sapiens) (UniProt Q9Y478); test: Inhibition of AMPKB1 (unknown origin) at 10 uM after 60 mins by ADP-Glo luminescence assay
[26] = molecular target: Ribosomal protein S6 kinase beta-1 (Homo sapiens) (UniProt P23443); test: Inhibition of S6K (unknown origin) at 10 uM after 60 mins by ADP-Glo luminescence assay
[27] = molecular target: Calcium/calmodulin-dependent protein kinase type 1 (Homo sapiens) (UniProt Q14012); test: Inhibition of CAMKI (unknown origin) at 10 uM after 60 mins by ADP-Glo luminescence assay
[28] = molecular target: 5'-AMP-activated protein kinase catalytic subunit alpha-1 (Homo sapiens) (UniProt Q13131); test: Inhibition of AMPKA1 (unknown origin) at 10 uM after 60 mins by ADP-Glo luminescence assay
[29] = molecular target: Serine/threonine-protein kinase 33 (Homo sapiens) (UniProt Q9BYT3); test: Inhibition of STK33 (unknown origin) at 10 uM after 60 mins by ADP-Glo luminescence assay
[30] = molecular target: Transcription factor HIVEP2 (Homo sapiens) (UniProt P31629); test: Inhibition of MBP2 (unknown origin) at 10 uM after 60 mins by ADP-Glo luminescence assay
[31] = molecular target: MAP kinase-activated protein kinase 2 (Homo sapiens) (UniProt P49137); test: Inhibition of MAPKAPK2 (unknown origin) at 10 uM after 60 mins by ADP-Glo luminescence assay
[32] = molecular target: Serine/threonine-protein kinase Chk2 (Homo sapiens) (UniProt O96017); test: Inhibition of CHK2 (unknown origin) at 10 uM after 60 mins by ADP-Glo luminescence assay

Calcium/calmodulin-dependent protein kinase type II subunit beta (Homo sapiens), sequence (Q13554 whole entry): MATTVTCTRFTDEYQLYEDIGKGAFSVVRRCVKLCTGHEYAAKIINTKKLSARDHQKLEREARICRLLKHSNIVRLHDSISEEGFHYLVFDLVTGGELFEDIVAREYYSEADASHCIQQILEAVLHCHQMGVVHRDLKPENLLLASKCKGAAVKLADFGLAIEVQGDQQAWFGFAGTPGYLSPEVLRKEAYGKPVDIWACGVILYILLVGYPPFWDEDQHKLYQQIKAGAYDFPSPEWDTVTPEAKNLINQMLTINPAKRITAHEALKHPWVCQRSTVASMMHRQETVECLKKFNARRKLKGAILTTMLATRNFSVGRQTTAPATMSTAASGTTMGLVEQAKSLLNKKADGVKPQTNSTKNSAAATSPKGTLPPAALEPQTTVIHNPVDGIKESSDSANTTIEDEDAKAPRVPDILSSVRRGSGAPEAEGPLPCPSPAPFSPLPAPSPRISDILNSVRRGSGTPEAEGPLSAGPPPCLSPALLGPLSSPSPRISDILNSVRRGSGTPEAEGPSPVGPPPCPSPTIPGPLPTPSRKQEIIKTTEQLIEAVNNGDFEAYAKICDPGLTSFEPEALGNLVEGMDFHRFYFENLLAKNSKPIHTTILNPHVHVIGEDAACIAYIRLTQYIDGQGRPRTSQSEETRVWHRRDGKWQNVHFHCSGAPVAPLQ
Transcription factor HIVEP2 (Homo sapiens), sequence (P31629 whole entry): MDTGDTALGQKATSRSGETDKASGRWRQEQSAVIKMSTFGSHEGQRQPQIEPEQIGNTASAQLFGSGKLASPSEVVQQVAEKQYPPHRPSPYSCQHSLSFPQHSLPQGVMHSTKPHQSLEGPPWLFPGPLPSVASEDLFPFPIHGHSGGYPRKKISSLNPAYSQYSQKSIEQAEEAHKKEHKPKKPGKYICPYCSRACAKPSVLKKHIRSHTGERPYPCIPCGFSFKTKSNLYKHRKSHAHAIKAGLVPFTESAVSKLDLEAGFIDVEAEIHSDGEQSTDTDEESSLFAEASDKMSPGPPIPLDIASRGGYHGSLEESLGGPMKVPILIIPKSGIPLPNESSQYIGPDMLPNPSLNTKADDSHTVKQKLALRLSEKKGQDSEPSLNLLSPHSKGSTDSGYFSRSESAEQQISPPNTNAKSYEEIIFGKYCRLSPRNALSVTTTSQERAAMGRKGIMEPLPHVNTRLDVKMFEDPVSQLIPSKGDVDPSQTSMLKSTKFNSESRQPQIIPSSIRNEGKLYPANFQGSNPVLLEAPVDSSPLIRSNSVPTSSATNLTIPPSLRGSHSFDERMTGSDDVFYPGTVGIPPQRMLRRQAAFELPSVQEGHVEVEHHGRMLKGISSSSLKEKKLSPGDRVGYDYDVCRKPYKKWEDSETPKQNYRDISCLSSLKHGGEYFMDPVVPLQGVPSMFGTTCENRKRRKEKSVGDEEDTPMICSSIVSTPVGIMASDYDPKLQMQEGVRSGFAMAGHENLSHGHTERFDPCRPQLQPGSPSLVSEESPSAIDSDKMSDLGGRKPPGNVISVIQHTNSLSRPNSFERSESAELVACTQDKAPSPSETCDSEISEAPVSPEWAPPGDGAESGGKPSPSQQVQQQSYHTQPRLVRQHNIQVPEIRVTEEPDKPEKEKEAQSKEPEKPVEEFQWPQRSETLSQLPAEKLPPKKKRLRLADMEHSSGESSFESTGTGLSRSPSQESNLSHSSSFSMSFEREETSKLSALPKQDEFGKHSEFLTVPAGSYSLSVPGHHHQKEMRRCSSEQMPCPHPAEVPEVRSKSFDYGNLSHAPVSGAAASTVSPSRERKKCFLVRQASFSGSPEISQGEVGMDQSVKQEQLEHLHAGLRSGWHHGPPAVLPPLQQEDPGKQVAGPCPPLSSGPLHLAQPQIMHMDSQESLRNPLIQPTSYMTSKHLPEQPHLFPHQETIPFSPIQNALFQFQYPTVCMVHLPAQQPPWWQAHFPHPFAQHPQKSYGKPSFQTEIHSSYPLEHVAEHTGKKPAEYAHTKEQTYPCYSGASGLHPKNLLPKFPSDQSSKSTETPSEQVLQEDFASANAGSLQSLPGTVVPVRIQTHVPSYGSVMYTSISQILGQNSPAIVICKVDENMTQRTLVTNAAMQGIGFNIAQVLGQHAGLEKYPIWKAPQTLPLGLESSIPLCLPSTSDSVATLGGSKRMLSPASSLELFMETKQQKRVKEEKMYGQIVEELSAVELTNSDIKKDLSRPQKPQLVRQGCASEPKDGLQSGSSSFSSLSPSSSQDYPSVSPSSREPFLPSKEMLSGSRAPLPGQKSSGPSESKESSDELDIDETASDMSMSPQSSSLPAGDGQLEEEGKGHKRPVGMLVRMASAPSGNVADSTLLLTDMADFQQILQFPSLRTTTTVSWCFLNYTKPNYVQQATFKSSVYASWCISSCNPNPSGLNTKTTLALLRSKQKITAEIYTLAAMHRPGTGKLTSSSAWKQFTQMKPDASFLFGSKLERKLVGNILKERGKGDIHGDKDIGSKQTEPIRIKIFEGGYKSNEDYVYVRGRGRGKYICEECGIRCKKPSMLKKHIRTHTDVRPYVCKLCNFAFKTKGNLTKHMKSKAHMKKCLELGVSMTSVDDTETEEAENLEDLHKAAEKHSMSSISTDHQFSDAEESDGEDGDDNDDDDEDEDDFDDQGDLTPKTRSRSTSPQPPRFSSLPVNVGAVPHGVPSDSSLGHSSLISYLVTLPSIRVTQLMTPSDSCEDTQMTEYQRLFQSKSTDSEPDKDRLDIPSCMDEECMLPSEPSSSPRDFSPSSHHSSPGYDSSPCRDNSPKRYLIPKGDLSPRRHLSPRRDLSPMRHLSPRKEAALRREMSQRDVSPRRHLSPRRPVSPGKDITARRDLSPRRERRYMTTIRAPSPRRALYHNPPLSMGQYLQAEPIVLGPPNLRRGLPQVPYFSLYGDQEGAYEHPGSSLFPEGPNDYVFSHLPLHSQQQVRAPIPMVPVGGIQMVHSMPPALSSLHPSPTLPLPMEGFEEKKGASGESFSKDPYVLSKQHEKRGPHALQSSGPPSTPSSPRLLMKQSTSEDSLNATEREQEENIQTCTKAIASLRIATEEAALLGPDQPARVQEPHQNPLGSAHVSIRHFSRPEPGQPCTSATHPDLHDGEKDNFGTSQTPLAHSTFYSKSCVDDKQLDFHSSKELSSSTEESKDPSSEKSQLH
PAS domain-containing serine/threonine-protein kinase (Homo sapiens), sequence (Q96RG2 whole entry, the tested form may be a part): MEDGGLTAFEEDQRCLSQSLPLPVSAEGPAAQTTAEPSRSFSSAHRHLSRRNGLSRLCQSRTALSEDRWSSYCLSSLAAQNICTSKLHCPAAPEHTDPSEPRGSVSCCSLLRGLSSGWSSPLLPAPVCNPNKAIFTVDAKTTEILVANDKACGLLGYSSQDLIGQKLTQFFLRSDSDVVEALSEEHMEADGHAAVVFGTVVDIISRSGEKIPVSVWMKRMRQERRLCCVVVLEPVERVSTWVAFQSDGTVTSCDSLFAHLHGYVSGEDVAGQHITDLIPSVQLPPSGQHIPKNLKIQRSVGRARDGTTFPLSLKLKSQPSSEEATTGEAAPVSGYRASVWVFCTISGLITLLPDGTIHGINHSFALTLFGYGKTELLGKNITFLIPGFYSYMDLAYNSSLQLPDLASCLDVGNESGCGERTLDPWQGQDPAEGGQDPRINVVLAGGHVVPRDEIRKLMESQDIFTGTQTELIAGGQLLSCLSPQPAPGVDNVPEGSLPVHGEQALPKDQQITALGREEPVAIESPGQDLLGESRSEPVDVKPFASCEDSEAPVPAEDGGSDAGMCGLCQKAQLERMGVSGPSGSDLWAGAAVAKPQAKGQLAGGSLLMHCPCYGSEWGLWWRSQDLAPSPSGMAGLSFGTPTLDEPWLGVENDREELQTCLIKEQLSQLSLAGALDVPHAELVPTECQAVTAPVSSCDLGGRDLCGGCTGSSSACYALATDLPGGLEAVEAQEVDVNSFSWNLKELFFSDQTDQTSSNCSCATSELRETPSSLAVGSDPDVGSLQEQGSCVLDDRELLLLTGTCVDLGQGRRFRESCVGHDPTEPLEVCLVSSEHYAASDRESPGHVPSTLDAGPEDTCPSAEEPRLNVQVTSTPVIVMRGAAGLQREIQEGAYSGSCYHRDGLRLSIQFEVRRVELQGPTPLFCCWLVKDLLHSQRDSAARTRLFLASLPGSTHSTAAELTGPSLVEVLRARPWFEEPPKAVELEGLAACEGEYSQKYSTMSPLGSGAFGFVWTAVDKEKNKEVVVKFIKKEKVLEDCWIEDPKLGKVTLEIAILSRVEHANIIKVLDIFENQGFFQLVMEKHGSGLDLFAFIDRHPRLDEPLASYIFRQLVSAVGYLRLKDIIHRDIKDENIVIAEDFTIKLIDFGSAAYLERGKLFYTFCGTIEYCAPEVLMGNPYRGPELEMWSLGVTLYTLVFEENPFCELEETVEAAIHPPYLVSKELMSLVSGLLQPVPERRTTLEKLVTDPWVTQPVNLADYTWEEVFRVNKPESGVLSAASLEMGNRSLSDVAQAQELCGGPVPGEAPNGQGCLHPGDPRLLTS
MAP kinase-activated protein kinase 2 (Homo sapiens), sequence (P49137 whole entry, looked up): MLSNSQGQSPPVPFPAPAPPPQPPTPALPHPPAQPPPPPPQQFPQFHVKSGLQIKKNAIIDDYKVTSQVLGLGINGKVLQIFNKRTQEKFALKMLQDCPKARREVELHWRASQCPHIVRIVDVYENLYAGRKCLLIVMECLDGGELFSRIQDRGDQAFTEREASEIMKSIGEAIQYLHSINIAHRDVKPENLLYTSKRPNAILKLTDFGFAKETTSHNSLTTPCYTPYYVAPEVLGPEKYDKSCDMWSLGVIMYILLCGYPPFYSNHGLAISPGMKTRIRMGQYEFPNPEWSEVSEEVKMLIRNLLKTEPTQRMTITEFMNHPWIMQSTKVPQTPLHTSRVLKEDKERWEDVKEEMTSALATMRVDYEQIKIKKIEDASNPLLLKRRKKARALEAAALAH
5'-AMP-activated protein kinase subunit beta-1 (Homo sapiens), sequence (Q9Y478 whole entry): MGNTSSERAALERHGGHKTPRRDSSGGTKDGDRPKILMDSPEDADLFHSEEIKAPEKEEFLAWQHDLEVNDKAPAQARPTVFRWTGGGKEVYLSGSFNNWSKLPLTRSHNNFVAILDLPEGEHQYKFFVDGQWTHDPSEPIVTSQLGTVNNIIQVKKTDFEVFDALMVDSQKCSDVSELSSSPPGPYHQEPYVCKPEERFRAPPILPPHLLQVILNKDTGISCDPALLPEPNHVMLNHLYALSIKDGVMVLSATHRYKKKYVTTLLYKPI

COc1ccc(Cn2cc(C(=O)N/N=C3/C(=O)Nc4c(C)cccc43)nn2)cc1
Activity [1]: Active | Activity [2]: 59.4% | Activity [3]: Active | inhibition [4]: inactive | Activity [5]: 0.59% | inhibition [6]: inactive | Activity [7]: Active | pIC50 [8]: 5.21 | Activity [9]: 2.11% | inhibition [10]: inactive | Ka [11]: 1.27 ×10⁴ /M | inhibition [12]: inactive | Activity [13]: 33.5% | inhibition [14]: inactive | Activity [15]: 2.24% | Activity [16]: 13.1% | Activity [17]: 66.3% | Activity [18]: 1.19% | Activity [19]: Active | Activity [20]: Active | inhibition [21]: inactive | Activity [22]: 37.3% | inhibition [23]: inactive | inhibition [24]: inactive | inhibition [25]: inactive | inhibition [26]: inactive | inhibition [27]: inactive | inhibition [28]: inactive | inhibition [29]: inactive | inhibition [30]: inactive | inhibition [31]: inactive | inhibition [32]: inactive
